Results published in ChEMBL document CHEMBL2321754, “Novel small molecule protein arginine deiminase 4 (PAD4) inhibitors” (Bioorg Med Chem Lett, 2013).

Columns and labels:
Carbonic anhydrase 9 = Carbonic anhydrase 9 (Homo sapiens, UniProt Q16790)
Description: Inhibition of human CA9 by stopped-flow assay

Carbonic anhydrase 12 = Carbonic anhydrase 12 (Homo sapiens, UniProt O43570); test: Inhibition of human CA12 by stopped-flow assay
Carbonic anhydrase 2 = Carbonic anhydrase 2 (Homo sapiens, UniProt P00918); test: Inhibition of human CA2 by stopped-flow assay
Carbonic anhydrase 1 = Carbonic anhydrase 1 (Homo sapiens, UniProt P00915); test: Inhibition of human CA1 by stopped-flow assay
Sequence of Carbonic anhydrase 1 (P00915 whole entry): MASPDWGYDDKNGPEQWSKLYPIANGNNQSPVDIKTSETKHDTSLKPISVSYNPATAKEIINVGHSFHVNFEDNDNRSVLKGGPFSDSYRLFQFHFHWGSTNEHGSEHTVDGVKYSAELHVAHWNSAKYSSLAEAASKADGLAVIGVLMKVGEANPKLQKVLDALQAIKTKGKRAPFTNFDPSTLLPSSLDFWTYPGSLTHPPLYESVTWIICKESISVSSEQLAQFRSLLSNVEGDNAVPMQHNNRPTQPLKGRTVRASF

Sequence of Carbonic anhydrase 12 (O43570 whole entry): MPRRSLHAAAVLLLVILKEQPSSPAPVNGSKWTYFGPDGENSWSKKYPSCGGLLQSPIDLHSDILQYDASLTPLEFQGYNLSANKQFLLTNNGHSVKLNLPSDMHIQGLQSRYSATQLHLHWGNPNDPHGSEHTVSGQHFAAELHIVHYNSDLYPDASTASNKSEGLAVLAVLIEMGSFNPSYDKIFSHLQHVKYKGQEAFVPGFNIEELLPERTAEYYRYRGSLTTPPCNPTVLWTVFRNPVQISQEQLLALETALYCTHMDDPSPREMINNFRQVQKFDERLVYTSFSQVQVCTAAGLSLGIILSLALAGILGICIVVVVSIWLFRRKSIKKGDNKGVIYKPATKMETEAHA

SMILES | Ki (Carbonic anhydrase 9) | Ki (Carbonic anhydrase 12) | Ki (Carbonic anhydrase 2) | Ki (Carbonic anhydrase 1)
N=C(N)Nc1ccc(O)cc1 | 4130 nM | 14600 nM | 7510 nM | 8340 nM
N=C(N)NCCc1ccc(S(N)(=O)=O)cc1 | 34 nM | 14 nM | 89 nM | 240 nM
N=C(N)Nc1ccc(C(=O)O)cc1 [4-GUANIDINO-BENZOIC ACID] | 2560 nM | 480 nM | 1150 nM | 630 nM
